# According to ChEMBL document CHEMBL1201862, “PubChem BioAssay data set” (2004):
#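 Assay format: 96-well plates, 48-hour exposure. GI50 marks 50% less growth.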 Active and inactive are the calls of the source. Cut-off read from the data, not from the text of the source: active = GI50 up to about 1.1 µM and inactive = higher.
# Tests used:
# Assay in all cases: NCI-60 cell line screen, 48 h
# MDA-MB-231 = system: MDA-MB-231
# OVCAR-4 = system: OVCAR-4
# Hs-578T = system: Hs-578T
# BT-549 = system: BT-549
# UACC-62 = system: UACC-62
# MDA-N = system: MDA-N
# UO-31 = system: UO-31
# T47D = system: T47D
# CCRF-CEM = system: CCRF-CEM
# PC-3 = system: PC-3
# SK-MEL-28 = system: SK-MEL-28
# SNB-75 = system: SNB-75
# 786-0 = system: 786-0
# MCF7 = system: MCF7
# NCI-H460 = system: NCI-H460
# SN12C = system: SN12C
# SF-295 = system: SF-295
# EKVX = system: EKVX
# A498 = system: A498
# SK-MEL-5 = system: SK-MEL-5
SMILES,GI50 (MDA-MB-231),GI50 (OVCAR-4),GI50 (Hs-578T),GI50 (BT-549),GI50 (UACC-62),GI50 (MDA-N),GI50 (UO-31),GI50 (T47D),GI50 (CCRF-CEM),GI50 (PC-3),GI50 (SK-MEL-28),GI50 (SNB-75),GI50 (786-0),GI50 (MCF7),GI50 (NCI-H460),GI50 (SN12C),GI50 (SF-295),GI50 (EKVX),GI50 (A498),GI50 (SK-MEL-5)
O=C(O[C@H]1CCN2C[C@H]3C[C@H](CN4C(=O)CCC[C@H]34)[C@@H]2C1)c1ccc(O)cc1,> 100 µM (inactive),> 100 µM (inactive),> 100 µM (inactive),> 100 µM (inactive),> 100 µM (inactive),> 100 µM (inactive),> 100 µM (inactive),> 100 µM (inactive),> 100 µM (inactive),> 100 µM (inactive),> 100 µM (inactive),> 100 µM (inactive),> 100 µM (inactive),> 100 µM (inactive),> 100 µM (inactive),> 100 µM (inactive),> 100 µM (inactive),> 100 µM (inactive),> 100 µM (inactive),–
COC1=CC(=O)c2c(cc(COP(=O)(N(C)CCBr)N(C)CCBr)n2C)C1=O,3.91 µM (inactive),5.32 µM (inactive),1.77 µM (inactive),1.38 µM (inactive),0.414 µM (active),1.21 µM (inactive),–,0.55 µM (active),0.0356 µM (active),6.82 µM (inactive),1.59 µM (inactive),0.102 µM (active),< 0.0204 µM (active),< 0.0182 µM (active),0.0582 µM (active),< 0.0272 µM (active),< 0.0164 µM (active),2.03 µM (inactive),1.97 µM (inactive),1.07 µM (active)
CCOC(=O)c1cc2cc(C)cc(C(=O)c3ccc([N+](=O)[O-])cc3)c2[nH]1,38.5 µM (inactive),> 100 µM (inactive),41.2 µM (inactive),> 100 µM (inactive),> 100 µM (inactive),> 100 µM (inactive),> 100 µM (inactive),> 100 µM (inactive),> 10 µM (inactive),> 100 µM (inactive),> 100 µM (inactive),51.6 µM (inactive),86.7 µM (inactive),> 100 µM (inactive),> 100 µM (inactive),> 100 µM (inactive),> 100 µM (inactive),> 100 µM (inactive),> 100 µM (inactive),> 100 µM (inactive)
O=C1Nc2ccccc2C(=O)/C1=C/NC(=S)NC1CCCCC1,> 100 µM (inactive),> 100 µM (inactive),> 100 µM (inactive),> 100 µM (inactive),> 100 µM (inactive),> 100 µM (inactive),> 100 µM (inactive),> 100 µM (inactive),> 100 µM (inactive),> 100 µM (inactive),–,> 100 µM (inactive),> 100 µM (inactive),> 100 µM (inactive),> 100 µM (inactive),> 100 µM (inactive),> 100 µM (inactive),> 100 µM (inactive),> 100 µM (inactive),> 100 µM (inactive)
Cc1cc(S(=O)(=O)/N=C(\NN)Nc2ccc(Cl)cc2)c(S)cc1Cl,20.4 µM (inactive),13.2 µM (inactive),1.17 µM (inactive),10.8 µM (inactive),1.5 µM (inactive),8.87 µM (inactive),5.58 µM (inactive),3.4 µM (inactive),3.28 µM (inactive),21.2 µM (inactive),21.6 µM (inactive),6.49 µM (inactive),6.34 µM (inactive),14.8 µM (inactive),4.46 µM (inactive),22.8 µM (inactive),–,5.16 µM (inactive),17.1 µM (inactive),4.94 µM (inactive)
CCOC(=O)C1(N)CCc2[nH][nH]c(=O)c2C1 (centres undefined),> 100 µM (inactive),> 100 µM (inactive),> 100 µM (inactive),> 100 µM (inactive),> 100 µM (inactive),> 100 µM (inactive),> 100 µM (inactive),> 100 µM (inactive),> 100 µM (inactive),> 100 µM (inactive),> 100 µM (inactive),> 100 µM (inactive),> 100 µM (inactive),> 100 µM (inactive),> 100 µM (inactive),–,> 100 µM (inactive),> 100 µM (inactive),> 100 µM (inactive),> 100 µM (inactive)
C[N+](C)([O-])CCC=C1c2ccccc2CCc2ccccc21,30.7 µM (inactive),28.2 µM (inactive),25.6 µM (inactive),41.9 µM (inactive),17.1 µM (inactive),19.5 µM (inactive),–,22.2 µM (inactive),18.6 µM (inactive),24.7 µM (inactive),33.5 µM (inactive),29.3 µM (inactive),4.79 µM (inactive),19.9 µM (inactive),31.3 µM (inactive),24.2 µM (inactive),27.5 µM (inactive),24.8 µM (inactive),21.5 µM (inactive),17.7 µM (inactive)
CCCNC(=O)N1CC(CN2CCN(c3ccccc3)CC2)O/C1=N/C(=O)Nc1ccccc1 (centres undefined),> 100 µM (inactive),90.4 µM (inactive),> 100 µM (inactive),> 100 µM (inactive),99.3 µM (inactive),> 100 µM (inactive),30.5 µM (inactive),18.2 µM (inactive),–,45.5 µM (inactive),> 100 µM (inactive),76.2 µM (inactive),> 100 µM (inactive),> 100 µM (inactive),> 100 µM (inactive),> 100 µM (inactive),> 100 µM (inactive),71.8 µM (inactive),> 100 µM (inactive),40.8 µM (inactive)
CCOC(=O)NN(C(=O)OCC)c1c(C)cc(C)cc1C,> 100 µM (inactive),> 100 µM (inactive),> 100 µM (inactive),> 100 µM (inactive),> 100 µM (inactive),> 100 µM (inactive),98.9 µM (inactive),> 100 µM (inactive),> 100 µM (inactive),> 100 µM (inactive),> 100 µM (inactive),> 100 µM (inactive),> 100 µM (inactive),> 100 µM (inactive),> 100 µM (inactive),> 100 µM (inactive),–,> 100 µM (inactive),> 100 µM (inactive),> 100 µM (inactive)
C#CCOC(=O)C(N)CCCNC(=N)N (centres undefined),> 100 µM (inactive),> 100 µM (inactive),> 100 µM (inactive),> 100 µM (inactive),–,> 100 µM (inactive),> 100 µM (inactive),> 100 µM (inactive),> 100 µM (inactive),> 100 µM (inactive),> 100 µM (inactive),> 100 µM (inactive),> 100 µM (inactive),> 100 µM (inactive),> 100 µM (inactive),> 100 µM (inactive),–,> 100 µM (inactive),> 100 µM (inactive),> 100 µM (inactive)
CC(=O)CC12NC(=O)N(C)N=C1N(C)C(=O)N(C)C2=O (centres undefined),43 µM (inactive),71.8 µM (inactive),> 100 µM (inactive),> 100 µM (inactive),23.9 µM (inactive),22.3 µM (inactive),> 100 µM (inactive),30.8 µM (inactive),39.2 µM (inactive),30.8 µM (inactive),57.3 µM (inactive),68.1 µM (inactive),91 µM (inactive),41.8 µM (inactive),65.9 µM (inactive),33.1 µM (inactive),27.4 µM (inactive),> 100 µM (inactive),31.9 µM (inactive),–
